Values quoted from earlier work as cited in patent US11174243B2, “Succinate forms and compositions of Bruton's tyrosine kinase inhibitors” (Sunesis Pharmaceuticals, Inc., priority 2016, dated 2021).
Like-named read-outs stand apart in the source and are kept apart here.

Conditions: mean, cited from earlier work

Row | SMILES | AUC0-24 (100 mg BID (steady state)) [µg·h/mL] | Cmax (100 mg BID (steady state)) [µg/mL] | Cmax (560 mg (single dose)) [µg/mL]
1 | CC#CC(=O)N1CCC[C@H]1c1nc(-c2ccc(C(=O)Nc3ccccn3)cc2)c2c(N)nccn12 [Acalabrutinib] | 1.85 | 0.827 | –
2 | C=CC(=O)N1CCC[C@@H](n2nc(-c3ccc(Oc4ccccc4)cc3)c3c(N)ncnc32)C1 [Ibrutinib] | – | – | 0.141
